Source: the supplement of paper PMC13380429

Columns and labels:
Conditions in all cases: 72 h
Vero E6 [1] = assay: relative viability EC50 (midpoint between 100% and the lowest measured viability); higher = less toxic
Caco-2 [2] = assay: as above
U2OS [3] = assay: as above
HepG2 [4] = assay: as above
Calu-3 [5] = assay: as above
Vero E6 [6] = assay: drug sensitivity score (DSS) for viability; higher = more toxic; extreme values may be limits of the assay
Caco-2 [7] = assay: as above
U2OS [8] = assay: as above
HepG2 [9] = assay: as above
Calu-3 [10] = assay: as above
Vero E6 [11] = assay: cell viability relative to DMSO; higher = less toxic
Caco-2 [12] = assay: as above
U2OS [13] = assay: as above
HepG2 [14] = assay: as above
Calu-3 [15] = assay: as above

Row | SMILES | relative viability EC50 (Vero E6 [1]) | relative viability EC50 (Caco-2 [2]) | relative viability EC50 (U2OS [3]) | relative viability EC50 (HepG2 [4]) | relative viability EC50 (Calu-3 [5]) | drug sensitivity score (Vero E6 [6]) | drug sensitivity score (Caco-2 [7]) | drug sensitivity score (U2OS [8]) | drug sensitivity score (HepG2 [9]) | drug sensitivity score (Calu-3 [10]) | cell viability (Vero E6 [11]; 1 nM) | cell viability (Vero E6 [11]; 10 nM) | cell viability (Vero E6 [11]; 100 nM) | cell viability (Vero E6 [11]; 1000 nM) | cell viability (Vero E6 [11]; 10000 nM) | cell viability (Caco-2 [12]; 1 nM) | cell viability (Caco-2 [12]; 10 nM) | cell viability (Caco-2 [12]; 100 nM) | cell viability (Caco-2 [12]; 1000 nM) | cell viability (Caco-2 [12]; 10000 nM) | cell viability (U2OS [13]; 1 nM) | cell viability (U2OS [13]; 10 nM) | cell viability (U2OS [13]; 100 nM) | cell viability (U2OS [13]; 1000 nM) | cell viability (U2OS [13]; 10000 nM) | cell viability (HepG2 [14]; 1 nM) | cell viability (HepG2 [14]; 10 nM) | cell viability (HepG2 [14]; 100 nM) | cell viability (HepG2 [14]; 1000 nM) | cell viability (HepG2 [14]; 10000 nM) | cell viability (Calu-3 [15]; 1 nM) | cell viability (Calu-3 [15]; 10 nM) | cell viability (Calu-3 [15]; 100 nM) | cell viability (Calu-3 [15]; 1000 nM) | cell viability (Calu-3 [15]; 10000 nM)
1 | C=CCN1CC[C@]2(C)c3cc(O)ccc3C[C@H]1[C@H]2C | > 10 µM | > 10 µM | > 10 µM | > 10 µM | > 10 µM | 0 | 0 | 0 | 0 | 0 | 96.9% | 102% | 93.4% | 100% | 107% | 97.3% | 99% | 102% | 103% | 96.3% | 98.6% | 98.2% | 103% | 99.2% | 101% | 98% | 95.4% | 108% | 104% | 117% | 102% | 90.2% | 94.7% | 90.3% | 93.8%
2 | CC(C)N(CCCNC(=O)Nc1ccc(C(C)(C)C)cc1)C[C@H]1O[C@@H](n2ccc3c(N)ncnc32)[C@H](O)[C@@H]1O | > 10 µM | > 10 µM | > 10 µM | > 10 µM | > 10 µM | 0 | 0 | 0 | 0 | 0 | 94.3% | 97% | 97.4% | 99.9% | 99.5% | 99.7% | 97.2% | 95.2% | 86.5% | 103% | 94.1% | 100% | 92.9% | 102% | 101% | 104% | 105% | 107% | 91.5% | 111% | 96.3% | 106% | 92.4% | 102% | 108%
3 | CC(C)c1ccc(CC(=O)N2CCC[C@@H](c3cccc(OC(C)(C)C(=O)O)c3)C2)cc1 | > 10 µM | > 10 µM | > 10 µM | > 10 µM | > 10 µM | 0 | 0 | 0 | 0 | 0 | 106% | 103% | 101% | 97.4% | 96.8% | 92.6% | 100% | 93.2% | 97.6% | 96.2% | 103% | 99.5% | 99.7% | 99.6% | 103% | 98.3% | 106% | 104% | 106% | 108% | 87.3% | 94.5% | 104% | 108% | 98.6%
4 | CC(O)(C(=O)Nc1ccc(S(=O)(=O)c2ccccc2)cc1)C(F)(F)F (stereo not given) | > 10 µM | > 10 µM | > 10 µM | > 10 µM | > 10 µM | 0 | 0 | 0 | 0 | 2.1 | 98.4% | 93.1% | 97.9% | 89.6% | 95.3% | 94.9% | 90.6% | 97% | 107% | 95.9% | 99.2% | 100% | 97.4% | 104% | 102% | 100% | 90.8% | 96.4% | 102% | 109% | 101% | 98.1% | 99.8% | 82.2% | 89.1%
5 | CC1(C)CCC(C)(C)c2c1cc(C(=O)Nc1cc(F)c(C(=O)O)c(F)c1)c(O)c2Cl | > 10 µM | > 10 µM | > 10 µM | > 10 µM | > 10 µM | 0 | 0.8 | 0 | 0 | 1.9 | 95.4% | 105% | 105% | 94.2% | 95.5% | 105% | 94.3% | 96% | 86.9% | 85.7% | 100% | 96.9% | 90.7% | 97.2% | 92.7% | 102% | 105% | 115% | 112% | 92.7% | 105% | 92.8% | 89.9% | 86.5% | 85.7%
6 | CN1CCC(c2c[nH]c3ccc(O)cc23)CC1 | > 10 µM | > 10 µM | > 10 µM | > 10 µM | > 10 µM | 0 | 0 | 0 | 0 | 0 | 105% | 102% | 98.8% | 91.7% | 101% | 98.7% | 100% | 95.4% | 100% | 92.1% | 98% | 103% | 98.7% | 102% | 95.8% | 98.5% | 96% | 94.4% | 83.4% | 100% | 91.9% | 92.8% | 87.9% | 98.7% | 90.3%
7 | CN1CCN(C(=O)c2cc3cc(Cl)ccc3[nH]2)CC1 | > 10 µM | > 10 µM | > 10 µM | > 10 µM | > 10 µM | 0 | 0 | 0 | 0 | 0 | 97.3% | 96.3% | 98.6% | 100% | 99.8% | 103% | 107% | 102% | 89.9% | 109% | 99.9% | 100% | 104% | 103% | 95.6% | 98.1% | 104% | 92.5% | 116% | 94.8% | 110% | 89.7% | 106% | 93.7% | 93.8%
8 | CNCCN(C)Cc1c[nH]nc1-c1ccc(O[C@H]2C[C@H](OCCC3CCOCC3)C2)cc1 | > 10 µM | > 10 µM | > 10 µM | > 10 µM | > 10 µM | 0 | 0 | 0 | 0 | 0 | 100% | 105% | 95.9% | 102% | 101% | 99.7% | 100% | 107% | 90.4% | 99.6% | 99.5% | 97.6% | 100% | 96.4% | 97% | 98% | 102% | 109% | 96.8% | 90.9% | 96.2% | 97.3% | 94.1% | 100% | 100%
9 | CN[C@H](CNC(=O)N1CCC[C@@H]([C@@H](OCCNC(=O)OC)c2cccc(Cl)c2)C1)C[C@H]1CCCOC1 | > 10 µM | > 10 µM | > 10 µM | > 10 µM | > 10 µM | 0 | 0 | 0 | 0 | 0 | 101% | 101% | 98.4% | 107% | 98.5% | 98.2% | 96.1% | 97.1% | 90.1% | 94.5% | 97.3% | 98.1% | 106% | 97.7% | 99.1% | 101% | 108% | 92.5% | 98.6% | 95% | 103% | 96.2% | 102% | 102% | 98.1%
10 | COC(=O)c1c(C)[nH]c(C)c1C(=O)c1ccccc1Cc1ccccc1 | > 10 µM | > 10 µM | > 10 µM | > 10 µM | > 10 µM | 0 | 0.3 | 0 | 0 | 0 | 100% | 101% | 98% | 94.1% | 99.8% | 98.6% | 97.1% | 98.1% | 99.9% | 84.8% | 99.5% | 103% | 87.8% | 102% | 92.1% | 99.2% | 94.8% | 109% | 95.8% | 104% | 90.1% | 106% | 89.8% | 108% | 90.1%
11 | COc1cc(OC)c(C(=O)CCCCN2CCC3(CC2)NC(=O)NC3=O)cc1NS(=O)(=O)c1ccc(C(F)(F)F)cc1 | > 10 µM | > 10 µM | > 10 µM | > 10 µM | > 10 µM | 0 | 0 | 0 | 0 | 0 | 103% | 106% | 102% | 99.5% | 99.7% | 102% | 103% | 107% | 98.7% | 93.6% | 98.8% | 106% | 99.7% | 101% | 94.7% | 102% | 111% | 95.3% | 89.1% | 105% | 98.2% | 108% | 81.2% | 93.9% | 93.6%
12 | COc1ccc(Oc2c(Cl)cnn(C3c4ccccc4-c4ccccc43)c2=O)cc1 | > 10 µM | > 10 µM | > 10 µM | > 10 µM | > 10 µM | 0 | 0 | 0 | 0 | 0 | 92.6% | 107% | 94.7% | 96.4% | 99.6% | 98.7% | 95% | 97% | 101% | 88.7% | 102% | 95.1% | 94.3% | 97.9% | 95.5% | 103% | 99.8% | 93.5% | 108% | 100% | 110% | 99.9% | 96.4% | 101% | 101%
13 | COc1ccc2c(c1)C(C(=O)N(Cc1ccc(N(C)C)cc1)c1ccc(C(C)C)cc1)CCC2 (stereo not given) | > 10 µM | > 10 µM | > 10 µM | > 10 µM | > 10 µM | 0 | 1.5 | 0 | 0 | 0 | 101% | 103% | 99.3% | 103% | 105% | 105% | 96.3% | 105% | 95.9% | 75.5% | 102% | 100% | 102% | 98.2% | 100% | 99.8% | 109% | 98.5% | 109% | 102% | 90.3% | 98.9% | 96.9% | 88% | 107%
14 | COc1nccc(-c2c(-c3ccc(F)cc3)ncn2[C@H]2CC[C@H](O)CC2)n1 | > 10 µM | > 10 µM | > 10 µM | > 10 µM | > 10 µM | 0 | 0 | 0 | 0 | 3.8 | 94.7% | 94.3% | 92.7% | 87.5% | 101% | 84.5% | 90.9% | 93.1% | 88.6% | 93.9% | 95.9% | 102% | 93.5% | 98.7% | 98.8% | 98.9% | 97.6% | 103% | 104% | 108% | 99.5% | 106% | 82.2% | 81.7% | 85.6%
